This assay has as its target VLA-4 (Homo sapiens, UniProt P05556+P13612). Kind of assay: VLA-4 direct binding assay (DBA).
Source text: (§1) Those skilled in the art routinely perform such assays, and can readily determine the activity of the experimental compound.
as §1

The results in this text go back to patent US6552216B1, “Molecular model for VLA-4 inhibitors” (Biogen, Inc., priority 1996, dated 2003).

For orientation: IC50 means the concentration that inhibits the measured activity by half. Low values mean higher potency, high ones lower potency.

Chain of VLA-4 (P13612 34-1032): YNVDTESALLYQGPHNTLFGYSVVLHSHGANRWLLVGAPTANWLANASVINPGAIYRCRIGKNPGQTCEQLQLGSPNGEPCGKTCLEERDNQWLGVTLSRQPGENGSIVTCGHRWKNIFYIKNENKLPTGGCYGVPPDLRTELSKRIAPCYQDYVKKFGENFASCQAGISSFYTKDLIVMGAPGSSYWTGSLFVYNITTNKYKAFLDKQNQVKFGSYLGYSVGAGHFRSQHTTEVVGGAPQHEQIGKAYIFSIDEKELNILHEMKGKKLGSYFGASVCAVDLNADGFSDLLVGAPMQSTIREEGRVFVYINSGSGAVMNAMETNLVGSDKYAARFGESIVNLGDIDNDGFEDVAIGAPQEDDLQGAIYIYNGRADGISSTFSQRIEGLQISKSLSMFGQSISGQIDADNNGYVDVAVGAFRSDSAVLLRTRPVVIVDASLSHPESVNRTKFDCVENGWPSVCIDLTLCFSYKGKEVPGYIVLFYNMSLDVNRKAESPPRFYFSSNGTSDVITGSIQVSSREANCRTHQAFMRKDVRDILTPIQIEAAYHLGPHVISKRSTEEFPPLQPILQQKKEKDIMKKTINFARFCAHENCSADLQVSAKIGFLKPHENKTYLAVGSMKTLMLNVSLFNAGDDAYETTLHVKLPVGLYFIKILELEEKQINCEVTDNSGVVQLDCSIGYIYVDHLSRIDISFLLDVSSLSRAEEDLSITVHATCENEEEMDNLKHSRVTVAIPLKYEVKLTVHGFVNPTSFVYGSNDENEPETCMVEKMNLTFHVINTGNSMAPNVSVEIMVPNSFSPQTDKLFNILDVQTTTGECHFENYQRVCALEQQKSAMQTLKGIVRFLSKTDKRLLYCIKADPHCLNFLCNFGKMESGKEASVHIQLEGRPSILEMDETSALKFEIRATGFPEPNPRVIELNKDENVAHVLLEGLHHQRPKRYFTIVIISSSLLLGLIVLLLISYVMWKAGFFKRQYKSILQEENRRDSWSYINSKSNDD
Chain of VLA-4 (P05556 21-798): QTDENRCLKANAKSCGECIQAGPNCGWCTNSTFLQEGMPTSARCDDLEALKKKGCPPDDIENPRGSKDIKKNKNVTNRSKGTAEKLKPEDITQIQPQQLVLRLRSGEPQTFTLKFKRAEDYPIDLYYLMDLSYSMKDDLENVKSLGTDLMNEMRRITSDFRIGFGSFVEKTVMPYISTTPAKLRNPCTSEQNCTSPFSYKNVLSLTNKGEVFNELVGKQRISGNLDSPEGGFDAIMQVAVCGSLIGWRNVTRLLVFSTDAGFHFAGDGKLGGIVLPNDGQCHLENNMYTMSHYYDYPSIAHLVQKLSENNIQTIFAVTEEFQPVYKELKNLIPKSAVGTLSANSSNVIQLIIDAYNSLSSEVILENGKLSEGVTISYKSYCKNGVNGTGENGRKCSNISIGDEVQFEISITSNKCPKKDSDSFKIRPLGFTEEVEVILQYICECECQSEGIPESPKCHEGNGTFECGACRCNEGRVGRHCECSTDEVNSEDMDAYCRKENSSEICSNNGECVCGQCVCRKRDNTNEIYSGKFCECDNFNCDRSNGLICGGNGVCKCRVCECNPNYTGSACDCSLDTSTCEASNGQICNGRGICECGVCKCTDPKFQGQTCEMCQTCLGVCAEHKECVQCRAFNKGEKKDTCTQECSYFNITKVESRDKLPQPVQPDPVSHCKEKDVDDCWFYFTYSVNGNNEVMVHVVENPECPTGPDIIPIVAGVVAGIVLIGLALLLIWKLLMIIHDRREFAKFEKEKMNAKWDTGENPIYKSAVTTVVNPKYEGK

In the case of `CC(C)C[C@H](NC(=O)Cc1ccccc1)C(=O)N[C@@H](CC(=O)O)C(=O)N[C@H](C(=O)N1CCC[C@H]1C(=O)O)C(C)C` [Phenylacetyl-Leu-Asp-Val-Pro], the IC50 stood at 2000 nM.
